BigSolDB 2.1

COc1cc2nccc(Oc3ccc(NC(=O)C4(C(=O)Nc5ccc(F)cc5)CC4)cc3)c2cc1OC.O=C(O)C[C@H](O)C(=O)O
solubility (mole fraction)
Settings | 298.2 K | 303.2 K | 308.2 K | 313.2 K | 318.2 K
in DMSO | 0.0332 | 0.0353 | 0.0376 | 0.0404 | 0.0435
in ethanol | 0.000391 | 0.000507 | 0.000724 | 0.000977 | 0.00127
in ethyl acetate | 8.8e-05 | 0.000135 | 0.000187 | 0.000277 | 0.000415
in ethylene glycol | 0.000426 | 0.000605 | 0.000839 | 0.00109 | 0.00138
in isopropanol | 0.000529 | 0.00068 | 0.000944 | 0.0013 | 0.00169
in methanol | 0.000169 | 0.000262 | 0.000372 | 0.000503 | 0.000705
in n-butanol | 0.000675 | 0.000932 | 0.00128 | 0.00166 | 0.00215
in propylene glycol | 0.000715 | 0.00098 | 0.00131 | 0.00179 | 0.00238
in sec-butanol | 0.000687 | 0.000943 | 0.00135 | 0.00173 | 0.00221
in transcutol | 0.00179 | 0.00231 | 0.00315 | 0.0042 | 0.00545
in water | 2.27e-07 | 3.4e-07 | 4.82e-07 | 6.52e-07 | 8.5e-07

Settings | solubility (mole fraction)
in PEG-400, 298.2 K | 0.00354
in PEG-400, 303.2 K | 0.00538
in PEG-400, 308.2 K | 0.00749
in PEG-400, 313.2 K | 0.0105
in PEG-400, 318.2 K | 0.0142
